Data as given in ChEMBL document CHEMBL1149454, “Synthesis and in vitro antitubercular activity of some 1-[(4-sub)phenyl]-3-(4-{1-[(pyridine-4-carbonyl)hydrazono]ethyl}phenyl)thiourea” (Bioorg Med Chem Lett, 2006).
In brackets after ≈: the same amount, converted by molar mass.

The compounds below were run on Mycobacterium tuberculosis (assay: Antibacterial activity against INH-resistant Mycobacterium tuberculosis).
Format: functional
Compound `C/C(=N/NC(=O)c1ccncc1)c1ccc(N/C(S)=N/c2ccc(C)cc2)cc1` has an MIC of 3.86 µM (≈ 1.56 µg/mL).
In the case of `C/C(=N/NC(=O)c1ccncc1)c1ccc(N/C(S)=N/c2ccc(F)cc2)cc1`, the MIC is reported as 0.49 µM (≈ 0.2 µg/mL).
Compound `COc1ccc(N/C(S)=N\c2ccc(/C(C)=N\NC(=O)c3ccncc3)cc2)cc1` has an MIC of 1.85 µM (≈ 0.776 µg/mL).
`CCOc1ccc(N/C(S)=N\c2ccc(/C(C)=N\NC(=O)c3ccncc3)cc2)cc1` gave an MIC of 1.79 µM (≈ 0.776 µg/mL).
Work on `C/C(=N/NC(=O)c1ccncc1)c1ccc(N/C(S)=N/c2ccccc2)cc1` yielded an MIC of 4 µM (≈ 1.56 µg/mL).
In the case of `C/C(=N/NC(=O)c1ccncc1)c1ccc(N/C(S)=N/c2ccc(Br)cc2)cc1`, the MIC is reported as 1.66 µM (≈ 0.778 µg/mL).
`NNC(=O)c1ccncc1` [ISONIAZID] was tested, and the MIC was 90.9 µM (≈ 12.5 µg/mL).
